Measurements as given in PubChem BioAssay (NCI).
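Following 48 hours of exposure in 96-well plates, responses at five concentrations were used to interpolate endpoints linearly. Definition used: TGI = concentration required for complete inhibition of growth.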 Where a SMILES comes first, the peptide text is derived from it. The star is where a group is joined. Boc = CC(C)(C)OC(=O)*; OBn = c1ccc(CO*)cc1

Legend:
Assay in all cases: DTP human tumour cell line panel, 48 h
[1] = system: OVCAR-4 ovarian
[2] = system: SF-295 CNS
[3] = system: HCT-116 colon
[4] = system: OVCAR-5 ovarian
[5] = system: RPMI-8226 leukemia

Compound: Cc1ccc(S(=O)(=O)Nn2c(S)c(C#N)c(-c3ccc([N+](=O)[O-])cc3)c(C#N)c2=O)cc1
- TGI [1]: > 100 µM
- TGI [2]: > 100 µM
- TGI [3]: 32.8 µM
- TGI [4]: > 100 µM
- TGI [5]: 37.8 µM

Compound: Cc1n[nH]c(=O)n1/N=C\CC/C=N\n1c(C)n[nH]c1=O
- TGI [1]: > 100 µM
- TGI [2]: > 100 µM
- TGI [3]: > 100 µM
- TGI [4]: > 100 µM
- TGI [5]: > 100 µM

Compound: CN(CCCN(C)CCc1ccc(Cl)c(Cl)c1)CCCN1CCCC1
- TGI [1]: 20.5 µM
- TGI [2]: 4.76 µM
- TGI [3]: 4.11 µM
- TGI [4]: 15.1 µM
- TGI [5]: 2.19 µM

Compound: O=C(CNC(=O)OCc1ccccc1)NCCCCC(NC(=O)OCc1ccccc1)C(=O)NC(CCCCNC(=O)CNC(=O)OCc1ccccc1)C(=O)OCc1ccccc1 (stereo not drawn)
- TGI [1]: > 62.5 µM
- TGI [3]: > 62.5 µM
- TGI [4]: > 62.5 µM
- TGI [5]: > 62.5 µM

Compound: COC(=O)C1CCC(=O)N1C(c1ccccc1)c1cc(OC)c(OC)c(OC)c1 (stereo not drawn)
- TGI [1]: > 100 µM
- TGI [2]: > 100 µM
- TGI [3]: > 100 µM
- TGI [4]: > 100 µM

Compound: O=C1C(=Nc2ccccc2)Oc2cc(O)ccc21
- TGI [1]: > 100 µM
- TGI [2]: > 100 µM
- TGI [3]: > 100 µM
- TGI [4]: > 100 µM

Compound: CC(NC(=O)C(Cc1ccccc1)NC(=O)C(Cc1ccccc1)NC(=O)OC(C)(C)C)C(=O)OCc1ccccc1 (stereo not drawn) (Boc-Phe-Phe-Ala-OBn; configuration not given here)
- TGI [2]: > 100 µM
- TGI [3]: > 100 µM
- TGI [4]: > 100 µM
- TGI [5]: > 100 µM

Compound: CCOc1ncn(-c2ccc(NC(=S)NC34CC5CC(CC(C5)C3)C4)cc2)n1
- TGI [1]: > 100 µM
- TGI [2]: > 100 µM
- TGI [3]: > 100 µM
- TGI [4]: > 100 µM
- TGI [5]: > 100 µM

Compound: CC(=O)N1N(c2ccc([N+](=O)[O-])cc2)C(=O)C1(C)C
- TGI [1]: 35 µM
- TGI [2]: > 100 µM
- TGI [4]: 44.3 µM

Compound: Cc1ccc2c(c1)-c1c(C#N)c(N)nc(-c3ccccc3)c1CCS2(=O)=O
- TGI [1]: > 100 µM
- TGI [2]: > 100 µM
- TGI [3]: > 100 µM
- TGI [4]: > 100 µM
- TGI [5]: 32.9 µM

Compound: O=S(=O)(O)c1ccc2c(N=Nc3ccc(F)cc3)c(O)c(S(=O)(=O)O)cc2c1
- TGI [1]: > 100 µM
- TGI [2]: > 100 µM
- TGI [3]: > 100 µM
- TGI [4]: > 100 µM
- TGI [5]: > 100 µM

Compound: c1ccc2cc(CNCCOCCOCCNCc3ccc4ccccc4c3)ccc2c1
- TGI [1]: 5.78 µM
- TGI [2]: 3.11 µM
- TGI [3]: 3.08 µM
- TGI [4]: 4 µM
- TGI [5]: 4.31 µM

Compound: Nc1ncnc2c1cnn2Cc1cn(COCC(O)CO)nn1 (stereo not drawn)
- TGI [1]: > 100 µM
- TGI [2]: > 100 µM
- TGI [3]: > 100 µM
- TGI [4]: > 100 µM

Compound: NC(CCC(=O)O)(CCC(=O)O)CCC(=O)O
- TGI [2]: > 100 µM
- TGI [3]: > 100 µM
- TGI [4]: > 100 µM
- TGI [5]: > 100 µM

Compound: COC(=O)CC(=O)Nc1sccc1S(=O)(=O)c1ccccc1
- TGI [1]: > 100 µM
- TGI [2]: > 100 µM
- TGI [3]: > 100 µM
- TGI [4]: > 100 µM
- TGI [5]: > 100 µM

Compound: c1ccc(C2OCC(OC3CCCCO3)CO2)cc1 (stereo not drawn)
- TGI [1]: > 100 µM
- TGI [2]: > 100 µM
- TGI [3]: > 100 µM
- TGI [4]: > 100 µM
- TGI [5]: > 100 µM

Compound: COc1ccc(C(=O)/C=C/c2cccnc2)cc1OC
- TGI [1]: 25.7 µM
- TGI [2]: 26.3 µM
- TGI [3]: 16.3 µM
- TGI [4]: 24.6 µM

Compound: Cc1ccc(-c2c(C#N)c(N)nc3c2CCS(=O)(=O)c2ccccc2-3)cc1
- TGI [1]: > 100 µM
- TGI [3]: > 100 µM
- TGI [5]: > 100 µM

Compound: COC(=O)[C@@]12C(=O)C(C)C(=O)[C@]1(C)C(C)=C[C@H]1[C@]3(C=O)CC[C@H](OC(C)=O)C(C)(C)[C@H]3CC[C@@]12C (stereo partly drawn)
- TGI [1]: > 100 µM
- TGI [2]: > 100 µM
- TGI [3]: > 100 µM
- TGI [4]: > 100 µM
- TGI [5]: > 100 µM

Compound: NNCCc1n[nH]c(=O)n1N
- TGI [1]: > 100 µM
- TGI [2]: > 100 µM
- TGI [3]: > 100 µM
- TGI [4]: > 100 µM
- TGI [5]: > 100 µM

Compound: O=C(NCCc1ccccc1)c1c(O)c2ccccc2[nH]c1=O
- TGI [1]: > 100 µM
- TGI [2]: > 100 µM
- TGI [3]: > 100 µM
- TGI [4]: > 100 µM
- TGI [5]: > 100 µM

Compound: COc1ccc(C(=O)N(C(=S)OCCOc2ccccc2)c2ccccc2)cc1
- TGI [1]: > 100 µM
- TGI [2]: > 100 µM
- TGI [3]: > 100 µM
- TGI [4]: > 100 µM
- TGI [5]: 37.9 µM

Compound: O=C1/C(=C/c2ccccc2)CCC/C1=C\c1ccc(O)c(CN2CCCCC2)c1
- TGI [1]: 13.8 µM
- TGI [2]: 13 µM
- TGI [3]: 2.97 µM
- TGI [4]: 37.9 µM
- TGI [5]: > 100 µM

Compound: O=C(CCCN1CCC2(CC1)CC(=O)N(N1CCCCCC1)C2=O)c1ccc(F)cc1
- TGI [1]: > 100 µM
- TGI [2]: 63.2 µM
- TGI [3]: > 100 µM
- TGI [4]: > 100 µM
- TGI [5]: > 100 µM

Compound: CC(C)/C(Cl)=N\OC(=O)Nc1ccc(F)cc1F
- TGI [1]: 10.3 µM
- TGI [2]: 28.3 µM
- TGI [3]: 15.7 µM
- TGI [4]: 33.5 µM
- TGI [5]: 75.2 µM

Compound: O=c1oc2c(ccc3ccccc32)cc1C1=CSC2=NCCN12
- TGI [1]: > 100 µM
- TGI [2]: > 100 µM
- TGI [3]: > 100 µM
- TGI [5]: > 100 µM

Compound: C=CCCCC1CCCNC1=S (stereo not drawn)
- TGI [1]: > 100 µM
- TGI [2]: > 100 µM
- TGI [3]: > 100 µM
- TGI [4]: > 100 µM
- TGI [5]: > 100 µM

Compound: O=C1Nc2ccccc2/C1=C/c1c(Cl)[nH]c2ccc(O)cc12
- TGI [1]: 38.5 µM
- TGI [2]: > 25.5 µM
- TGI [3]: 19.4 µM
- TGI [4]: 17.1 µM
- TGI [5]: 14.1 µM

Compound: O=C(Cc1ccccc1)NCCCN(CCCCN(CCCNC(=O)Cc1ccccc1)C(=O)OCc1ccccc1)C(=O)OCc1ccccc1
- TGI [1]: > 28.6 µM
- TGI [2]: > 100 µM
- TGI [3]: > 100 µM
- TGI [4]: > 100 µM
- TGI [5]: > 100 µM

Compound: O=C(/C=C/c1ccccc1)CSc1nc2ccc(I)cc2c(=O)n1Cc1ccccc1
- TGI [1]: > 100 µM
- TGI [2]: > 70.6 µM
- TGI [3]: > 100 µM
- TGI [4]: > 100 µM
- TGI [5]: > 88 µM

Compound: C[n+]1cccc2ccc(OC(=O)c3ccccc3)cc21
- TGI [1]: > 100 µM
- TGI [2]: > 100 µM
- TGI [3]: > 100 µM
- TGI [4]: > 100 µM
- TGI [5]: > 100 µM

Compound: c1ccc2c(c1)nc1n2C2CCC(C2)N1 (stereo not drawn)
- TGI [1]: > 10 µM
- TGI [2]: > 10 µM
- TGI [3]: > 10 µM
- TGI [4]: > 10 µM
- TGI [5]: > 10 µM
